Measured values from patent publication US5955440A, “Macrolide LHRH antagonists” (Abbott Laboratories, priority 1998, dated 1999).

Target: T1, LHRH rat pituitary receptor (Rattus norvegicus, UniProt P30969)
T1 construct: from tissue; host or cells: rat pituitary
T1 sequence (P30969 1-327): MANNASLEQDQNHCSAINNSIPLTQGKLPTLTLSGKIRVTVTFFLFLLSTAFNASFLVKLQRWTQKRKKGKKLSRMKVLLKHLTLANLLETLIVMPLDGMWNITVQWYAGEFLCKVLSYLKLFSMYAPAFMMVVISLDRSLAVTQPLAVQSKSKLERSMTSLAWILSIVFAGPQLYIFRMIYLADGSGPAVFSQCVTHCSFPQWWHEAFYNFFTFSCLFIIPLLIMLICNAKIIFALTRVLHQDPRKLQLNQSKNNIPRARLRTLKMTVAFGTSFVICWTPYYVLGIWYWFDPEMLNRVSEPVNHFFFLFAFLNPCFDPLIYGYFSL
Assay: LHRH rat pituitary receptor binding (pKI)
Details: negative logarithm of the equilibrium dissociation constants; for Ki: Table 1, read-out: receptor binding affinity (pKI) (converted)
Method: Representative compounds of the present invention were evaluated in in vitro tests for LHRH rat pituitary receptor binding (pKI) and for LH inhibition from rat pituitary cells for antagonist potency (pA2). The tests employed the methods detailed in F. Haviv, et al. J. Med. Chem., 32: 2340-2344 (1989). The receptor binding affinity (pKI) is the negative logarithm of the equilibrium dissociation constants.

Row | SMILES | Ki | receptor binding affinity (pKI) (Table 1)
1 | CC[C@H]1OC(=O)[C@H](C)[C@@H](O[C@H]2C[C@@](C)(OC)[C@@H](O)[C@H](C)O2)[C@H](C)[C@@H](O[C@@H]2O[C@H](C)C[C@H](N(C)CCCc3cccnc3)[C@H]2O)[C@](C)(OC)C[C@@H](C)C(=O)[C@H](C)[C@H]2N(CCc3ccc(F)c(Cl)c3)C(=O)O[C@]12C [Example 80, 3'-N-Desmethyl-3'-N-[3-(3-pyridyl)propyl]-11-deoxy-11-[carboxy-(3-chloro-4-fluorophenethylamino)]-6-O-methyl-erythromycin A 11,12-(cyclic carbamate)] | 3.98 nM | 
2 | CC[C@H]1OC(=O)[C@H](C)[C@@H](O[C@H]2C[C@@](C)(OC)[C@@H](O)[C@H](C)O2)[C@H](C)[C@@H](O[C@@H]2O[C@H](C)C[C@H](N(C)CCCc3ccccn3)[C@H]2O)[C@](C)(OC)C[C@@H](C)C(=O)[C@H](C)[C@H]2N(CCc3ccc(F)c(Cl)c3)C(=O)O[C@]12C [Example 82, 3'-N-Desmethyl-3'-N-[3-(2-pyridyl)propyl]-11-deoxy-11-[carboxy-(3-chloro-4-fluorophenethylamino)]-6-O-methyl-erythromycin A 11,12-(cyclic carbamate)] | 2.29 nM | 
3 | CC[C@H]1OC(=O)[C@H](C)[C@@H](O[C@H]2C[C@@](C)(OC)[C@@H](O)[C@H](C)O2)[C@H](C)[C@@H](O[C@@H]2O[C@H](C)C[C@H](N(C)Cc3ccc(N(C)C)c4ccccc34)[C@H]2O)[C@](C)(OC)C[C@@H](C)C(=O)[C@H](C)[C@H]2N(CCc3ccc(Cl)c(Cl)c3)C(=O)O[C@]12C [Example 74, 3'-N-Desmethyl-3'-N-(4-dimethylamino-1-napthylmethyl)-11-deoxy-11-[carboxy-(3,4-dichlorophenethylamino)]-6-O-methyl-erythromycin A 11,12-(cyclic carbamate)] | 3.16 nM | 
4 | CC[C@H]1OC(=O)[C@H](C)[C@@H](O[C@H]2C[C@@](C)(OC)[C@@H](O)[C@H](C)O2)[C@H](C)[C@@H](O[C@@H]2O[C@H](C)C[C@H](N(C)C3CCCC3)[C@H]2O)[C@](C)(OC)C[C@@H](C)C(=O)[C@H](C)[C@H]2N(CCc3ccc(OC)c(Br)c3)C(=O)O[C@]12C [Example 42, 3'-N-Desmethyl-3'-N-cyclopentyl-11-deoxy-11-[carboxy-(3-bromo-4-methoxyphenethylamino)]-6-O-methyl-erythromycin A 11,12-(cyclic carbamate)] | 7.24 nM | 
5 | CC[C@H]1OC(=O)[C@H](C)[C@@H](O[C@H]2C[C@@](C)(OC)[C@@H](O)[C@H](C)O2)[C@H](C)[C@@H](O[C@@H]2O[C@H](C)C[C@H](N(C)Cc3ccc4ccccc4c3Br)[C@H]2O)[C@](C)(OC)C[C@@H](C)C(=O)[C@H](C)[C@H]2N(CCc3ccc(Cl)c(Cl)c3)C(=O)O[C@]12C [Example 72, 3'-N-Desmethyl-3'-N-(1-bromo-2-napthylmethyl)-11-deoxy-11-[carboxy-(3,4-dichlorophenethylamino)]-6-O-methyl-erythromycin A 11,12-(cyclic carbamate)] | 0.676 nM | 
6 | CC[C@H]1OC(=O)[C@H](C)[C@@H](O[C@H]2C[C@@](C)(OC)[C@@H](O)[C@H](C)O2)[C@H](C)[C@@H](O[C@@H]2O[C@H](C)C[C@H](N(C)Cc3ccc(OCCO)cc3)[C@H]2O)[C@](C)(OC)C[C@@H](C)C(=O)[C@H](C)[C@H]2N(CCc3ccc(F)c(Cl)c3)C(=O)O[C@]12C [Example 49, 3'-N-Desmethyl-3'-N-(4-hydroxyethoxybenzyl)-11-deoxy-11-[carboxy-(3-chloro-4-fluorophenethylamino)]-6-O-methyl-erythromycin A 11,12-(cyclic carbamate)] | 3.16 nM | 

More lines, now with the values ahead:

Row | Ki | receptor binding affinity (pKI) (Table 1) | SMILES
7 | 8.13 nM |  | CC[C@H]1OC(=O)[C@H](C)[C@@H](O[C@H]2C[C@@](C)(OC)[C@@H](O)[C@H](C)O2)[C@H](C)[C@@H](O[C@@H]2O[C@H](C)C[C@H](N(C)CCC(C)C)[C@H]2O)[C@](C)(OC)C[C@@H](C)C(=O)[C@H](C)[C@H]2N(CCc3ccc(Cl)c(Cl)c3)C(=O)O[C@]12C [Example 6]
8 | 3.55 nM |  | CCCN(C)[C@H]1C[C@@H](C)O[C@@H](O[C@@H]2[C@@H](C)[C@H](O[C@H]3C[C@@](C)(OC)[C@@H](O)[C@H](C)O3)[C@@H](C)C(=O)O[C@H](CC)[C@@]3(C)OC(=O)N(CCc4ccc(OC)c(Br)c4)[C@@H]3[C@@H](C)C(=O)[C@H](C)C[C@@]2(C)OC)[C@@H]1O [Example 43, 3'-N-Desmethyl-3'-N-propyl-11-deoxy-11-[carboxy-(3-bromo-4-methoxyphenethylamino)]-6-O-methyl-erythromycin A 11,12-(cyclic carbamate)]
9 | 7.41 nM |  | CC[C@H]1OC(=O)[C@H](C)[C@@H](O[C@H]2C[C@@](C)(OC)[C@@H](O)[C@H](C)O2)[C@H](C)[C@@H](O[C@@H]2O[C@H](C)C[C@H](N(C)Cc3ccccn3)[C@H]2O)[C@](C)(OC)C[C@@H](C)C(=O)[C@H](C)[C@H]2N(CCc3ccc(Cl)c(Cl)c3)C(=O)O[C@]12C [Example 65, 3'-N-Desmethyl-3'-N-(2-pyridyl)methyl-11-deoxy-11-[carboxy-(3,4-dichlorophenethylamino)]-6-O-methyl-erythromycin A 11,12-(cyclic carbamate)]
10 | 7.59 nM |  | CCC(C)N(C)[C@H]1C[C@@H](C)O[C@@H](O[C@@H]2[C@@H](C)[C@H](O[C@H]3C[C@@](C)(OC)[C@@H](O)[C@H](C)O3)[C@@H](C)C(=O)O[C@H](CC)[C@@]3(C)OC(=O)N(CCc4ccc(Cl)cc4)[C@@H]3[C@@H](C)C(=O)[C@H](C)C[C@@]2(C)OC)[C@@H]1O (stereo partly shown) [Example 35, 3'-N-Desmethyl-3'-N-(2-butyl)-11-deoxy-11-[carboxy-(4-chlorophenethylamino)]-6-O-methyl-erythromycin A 11,12-(cyclic carbamate)]
11 | 7.24 nM |  | CC[C@H]1OC(=O)[C@H](C)[C@@H](O[C@H]2C[C@@](C)(OC)[C@@H](O)[C@H](C)O2)[C@H](C)[C@@H](O[C@@H]2O[C@H](C)C[C@H](N(C)CC3CC3)[C@H]2O)[C@](C)(OC)C[C@@H](C)C(=O)[C@H](C)[C@H]2N(CCc3ccc(Cl)c(Cl)c3)C(=O)O[C@]12C [Example 55, 3'-N-Desmethyl-3'-N-cyclopropylmethyl-11-deoxy-11-[carboxy-(3,4-dichlorophenethylamino)]-6-O-methyl-erythromycin A 11,12-(cyclic carbamate)]
12 |  | 8.36 | CC[C@H]1OC(=O)[C@H](C)[C@@H](O[C@H]2C[C@@](C)(OC)[C@@H](O)[C@H](C)O2)[C@H](C)[C@@H](O[C@@H]2O[C@H](C)C[C@H](N(C)C3CC(C)C(C)C3)[C@H]2O)[C@](C)(OC)C[C@@H](C)C(=O)[C@H](C)[C@H]2N(CCc3ccc(Cl)c(Cl)c3)C(=O)O[C@]12C (stereo partly shown) [Example 9, 3'-N-Desmethyl-3'-N-(3,4-dimethylcyclopentyl)-11-deoxy-11-[carboxy-(3,4-dichlorophenethylamino)]-6-O-methyl-erythromycin A 11,12-(cyclic carbamate)]
13 | 5.01 nM |  | CC[C@H]1OC(=O)[C@H](C)[C@@H](O[C@H]2C[C@@](C)(OC)[C@@H](O)[C@H](C)O2)[C@H](C)[C@@H](O[C@@H]2O[C@H](C)C[C@H](N(C)CCC(C)SC)[C@H]2O)[C@](C)(OC)C[C@@H](C)C(=O)[C@H](C)[C@H]2N(CCc3ccc(Cl)c(Cl)c3)C(=O)O[C@]12C (stereo partly shown) [Example 93, 3'-N-Desmethyl-3'-N-[(3-methylthio)butyl]-11-deoxy-11-[carboxy-(3,4-dichlorophenethylamino)]-6-O-methyl-erythromycin A 11,12-(cyclic carbamate)]
